Experimental data published in US20070004791A1, “3,6-disubstituted azabicyclo {3.1.0} hexane derivatives useful as muscarnic receptor antagonists” (priority 2002, published 2007).
Counter-ions that a name gives are not always drawn.

Tests used:
M2 muscarinic receptor = target: T1, M2 muscarinic receptor (Rattus norvegicus, UniProt P10980); assay: biochemical; format: binding; settings: for Ki: Receptor Binding Assay M2 pKi
T1 construct: Submandibular glands and heart were isolated and placed in ice cold homogenising buffer; from tissue; host or cells: rat heart membrane homogenate
T1 sequence (P10980 1-466): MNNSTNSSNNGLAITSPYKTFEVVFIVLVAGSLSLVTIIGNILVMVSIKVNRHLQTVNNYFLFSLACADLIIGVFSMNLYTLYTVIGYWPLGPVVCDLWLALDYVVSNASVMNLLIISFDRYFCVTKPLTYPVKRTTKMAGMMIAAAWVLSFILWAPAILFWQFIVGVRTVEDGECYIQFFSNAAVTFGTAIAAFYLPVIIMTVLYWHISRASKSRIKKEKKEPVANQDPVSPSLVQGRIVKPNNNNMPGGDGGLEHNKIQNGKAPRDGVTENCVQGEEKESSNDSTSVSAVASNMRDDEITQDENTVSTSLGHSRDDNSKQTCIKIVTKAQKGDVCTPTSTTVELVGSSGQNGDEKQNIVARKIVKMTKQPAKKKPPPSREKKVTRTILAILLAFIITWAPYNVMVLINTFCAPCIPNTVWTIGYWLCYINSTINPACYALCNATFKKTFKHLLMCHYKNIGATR

M3 muscarinic receptor [1] = target: T2, M3 muscarinic receptor (Rattus norvegicus, UniProt P08483); assay: biochemical; settings: Receptor Binding Assay M3 pKi
M3 muscarinic receptor [2] = target: T2, M3 muscarinic receptor

T2 sequence (P08483 whole entry): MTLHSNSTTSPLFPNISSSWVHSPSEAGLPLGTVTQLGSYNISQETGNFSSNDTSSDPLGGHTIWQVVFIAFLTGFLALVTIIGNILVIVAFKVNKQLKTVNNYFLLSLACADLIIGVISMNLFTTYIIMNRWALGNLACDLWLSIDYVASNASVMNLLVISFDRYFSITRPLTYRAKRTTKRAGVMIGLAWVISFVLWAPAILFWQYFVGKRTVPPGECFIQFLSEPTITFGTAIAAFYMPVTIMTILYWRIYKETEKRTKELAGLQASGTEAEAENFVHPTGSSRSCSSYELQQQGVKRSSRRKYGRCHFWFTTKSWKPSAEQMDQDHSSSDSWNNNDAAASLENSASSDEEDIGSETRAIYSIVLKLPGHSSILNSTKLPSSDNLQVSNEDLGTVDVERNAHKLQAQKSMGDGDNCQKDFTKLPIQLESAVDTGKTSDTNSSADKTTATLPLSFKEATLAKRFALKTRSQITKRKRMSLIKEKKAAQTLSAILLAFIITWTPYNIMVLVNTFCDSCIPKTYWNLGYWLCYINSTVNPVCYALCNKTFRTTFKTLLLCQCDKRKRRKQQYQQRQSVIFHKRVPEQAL

Compound | Ki (M2 muscarinic receptor) [nM] | Ki (M3 muscarinic receptor [1]) [nM] | Receptor Binding Assay Selectivity M2/M3 (M3 muscarinic receptor [2]) | Receptor Binding Assay M2 pKi (M2 muscarinic receptor) | Receptor Binding Assay M3 pKi (M3 muscarinic receptor [2])
O=C(NC[C@@H]1[C@H]2CN(Cc3cccnc3)C[C@@H]12)C(O)(c1ccccc1)C1CCCCC1 (stereo partly drawn) [Compound No. 45, (1α,5α,6α)-N-[3-(3-pyridylmethyl)-3-azabicyclo[3.1.0]hexyl-6-(aminomethyl)-yl]-2-hydroxy-2-cyclohexyl-2-phenyl acetamide] | > 1000 | 234 |  |  | 
O=C(NC[C@@H]1[C@H]2CN(Cc3ccccc3)C[C@@H]12)C(O)(c1ccccc1)C1CCC1 (stereo partly drawn) [Compound No. 37, (1α,5α,6α)-N-[3-benzyl-3-azabicyclo[3.1.0]hexyl-6-(aminomethyl)-yl]-2hydroxy-2-cyclobutyl-2-phenylacetamide] | 57.5 | 5.89 | 8 |  | 
O=C(NC[C@@H]1[C@H]2CN(Cc3ccccc3)C[C@@H]12)C(O)(c1ccccc1)C1CCCC1 (stereo partly drawn) [Compound No. 62, (1α,5α,6α)-N-[3-benzyl-3-azabicyclo[3.1.0]-hexyl-6-(aminomethyl)-yl]-2-hydroxy-2-cyclopentyl-2-phenyl acetamide. Maleate salt] | 52.5 | 6.76 |  |  | 
O=C(NCC1C2CN(Cc3ccccc3)CC12)C(O)(c1ccccc1)C1CCCC1 (stereo not drawn) [Compound No. 61, (1α,5α,6α)-N-[3-benzyl-3-azabicyclo[3.1.0]-hexyl-6-(aminomethyl)-yl]-2-hydroxy-2-cyclopentyl-2-phenyl acetamide. L(−) malic acid salt] | 43.7 | 5.13 |  |  | 
O=C(NC[C@@H]1[C@H]2CN(Cc3ccccc3)C[C@@H]12)[C@](O)(c1ccccc1)C1CCCC1 [Compound No. 29, (2R)-(+)-(1α,5α,6α)-N-[3-benzyl-3-azabicyclo[3.1.0]hexyl-6-(aminomethyl)-yl]-2-hydroxy-2-cyclopentyl-2-phenyl acetamide] | 12.3 | 1.1 | 11.2 |  | 
CC(C)=CCN1C[C@@H]2[C@@H](CNC(=O)C(O)(c3ccccc3)C3CCCCC3)[C@@H]2C1 (stereo partly drawn) [Compound No. 39, (1α,5α,6α)-N-[3-(3-methyl-2-butenyl)-3-azabicyclo[3.1.0]hexyl-6-(aminomethyl)yl]-2-hydroxy-2-cyclohexyl-2-phenylacetamide] | 16.2 | 4.37 | 3.7 |  | 
CC(c1ccccc1)N1CC2C(CNC(=O)C(O)(c3ccccc3)C3CCCCC3)C2C1 (stereo not drawn) [Compound No. 21, (1α,5α,6α)-N-[3-(1-phenylethyl)-3-azabicyclo[3.1.0]hexyl-6-(aminomethyl)-yl]-2-hydroxy-2-cyclohexyl-2-phenyl acetamide] | 257 | 15.1 | 17 |  | 
(1α,5α,6α)-N-[3-(2-(3,4-methylenedioxyphenyl)ethyl)-3-azabicyclo[3.1.0]hexyl-6-(aminomethyl)-yl]-2-hydroxy-2-cyclohexyl-2-phenyl acetamide [Compound No. 14] |  |  | 10.5 | 5.7 | 6.72
O=C(NCC1C2CN(Cc3ccncc3)CC12)C(O)(c1ccccc1)C1CCCCC1 (stereo not drawn) [Compound No. 46, (1α,5α,6α)-N-[3-(4pyridylmethyl)-3-azabicyclo[3.1.0]hexyl-6-(aminomethyl)-yl]-2-hydroxy-2-cyclohexyl-2-phenylacetamide] | > 1000 | 67.6 |  |  | 
O=C(NC[C@@H]1[C@H]2CN(Cc3ccccc3)C[C@@H]12)[C@@](O)(c1ccccc1)C1CCCC1 [Compound No. 32, (2S)-(−)(1α,5α,6α)-N-[3-benzyl-3-azabicyclo[3.1.0]hexyl-6-(aminomethyl)-yl]-2-hydroxy-2-cyclopentyl-2-phenyl acetamide] | 631 | 22.4 | 28 |  | 
O=C(NC[C@@H]1[C@H]2CN(CCc3ccc4c(c3)CCO4)C[C@@H]12)C(O)(c1ccccc1)C1CCCCC1 (stereo partly drawn) [Compound No. 9, (1α,5α,6α)-N-[3-(2-(2,3-dihydrobenzofuran-5-yl)ethyl)-3-azabicyclo[3.1.0]hexyl-6-(aminomethyl)-yl]-2-hydroxy-2-cyclohexyl-2-phenyl acetamide] | 257 | 38.9 | 6.6 |  | 
CC(C)=CCCN1C[C@@H]2[C@@H](CNC(=O)C(O)(c3ccccc3)C3CCCCC3)[C@@H]2C1 (stereo partly drawn) [Compound No. 15, (1α,5α,6α)-N-[3-(4-methyl-3-pentenyl)-3-azabicyclo[3.1.0]hexyl-6-(aminomethyl)-yl]-2-hydroxy-2-cyclohexyl-2-phenyl acetamide] | 257 | 13.5 | 19 |  | 
O=C(NC[C@@H]1[C@H]2CN(Cc3cccnc3)C[C@@H]12)C(O)(c1ccccc1)c1ccccc1 [Compound No. 49, (1α,5α,6α)-N-[3-(3-pyridylmethyl)-3-azabicyclo[3.1.0]hexyl-6-(aminomethyl)-yl]-2-hydroxy-2,2-diphenylacetamide] | > 1000 | 69.2 |  |  | 
O=C(NC[C@@H]1[C@H]2CN(Cc3ccccc3)C[C@@H]12)C(O)(c1ccccc1)c1ccccc1 [Compound No. 1, (1α,5α,6α)-N-[3-benzyl-3-azabicyclo[3.1.0]hexyl-6-(aminomethyl)-yl]-2-hydroxy-2,2-diphenyl acetamide] | 257 | 25.1 | 10 |  | 
O=C(NC[C@@H]1[C@H]2CN(Cc3ccccc3)C[C@@H]12)C(O)(c1ccccc1)C1CC1 (stereo partly drawn) [Compound No. 38, (1α,5α,6α)-N-[3-benzyl-3-azabicyclo[3.1.0]hexyl-6-(aminomethyl)-yl]-2-hydroxy-2-cyclopropyl-2-phenylacetamide] | 427 | 64.6 | 6.6 |  | 
CC(C)=CCCN1CC2C(CNC(=O)C(O)(c3ccccc3)C3CCCC3)C2C1 (stereo not drawn) [Compound No. 16, (1α,5α,6α)-N-[3-(4-methyl-3-pentenyl)-3-azabicyclo[3.1.0]hexyl-6-(aminomethyl)-yl]-2-hydroxy-2-cyclopentyl-2-phenyl acetamide] | 178 | 23.4 | 7.6 |  | 
O=C(NCC1C2CN(Cc3ccccc3)CC12)C(O)(c1ccccc1)C1CCCCC1 (stereo not drawn) [Compound No. 2, (1α,5α,6α)-N-[3-benzyl-3-azabicyclo[3.1.0]hexyl-6-(aminomethyl)-yl]-2-hydroxy-2-cyclohexyl-2-phenyl acetamide] | 141 | 5.62 | 25 |  | 
(1α,5α,6α)-N-[3-(2-(3,4-methylenedioxyphenyl)ethyl)-3-azabicyclo[3.1.0]hexyl-6-(aminomethyl)-yl]-2-hydroxy-2-cyclopentyl-2-phenyl acetamide [Compound No. 13] |  |  | 6.3 | 6.48 | 7.28
O=C(NCC1C2CN(Cc3ccccc3)CC12)C(O)(c1ccccc1)C1CCCCC1 (single isomer, unassigned) [Compound No. 28] | 14.1 | 3.98 | 3.5 |  | 
CC(NC(=O)C(O)(c1ccccc1)C1CCCCC1)[C@H]1[C@@H]2CN(Cc3ccccc3)C[C@@H]21 (stereo partly drawn) [Compound No. 24, (1α,5α,6α)-N-[3-benzyl-3-azabicyclo[3.1.0]hexyl-6-(1-aminoethyl)-yl]-2-hydroxy-2-cyclohexyl-2-phenyl acetamide] | 275 | 30.9 | 8.9 |  | 
CC(NC(=O)C(O)(c1ccccc1)c1ccccc1)[C@H]1[C@@H]2CN(Cc3ccccc3)C[C@@H]21 (stereo partly drawn) [Compound No. 23, (1α,5α,6α)-N-[3-benzyl-3-azabicyclo[3.1.0]hexyl-6-(1-aminoethyl)-yl]-2-hydroxy-2,2-diphenyl acetamide] | 589 | 158 | 3.7 |  | 
O=C(NCC1C2CN(Cc3ccccc3)CC12)C(O)(c1ccccc1)C1CCCC1 (stereo not drawn) [Compound No. 60, (1α,5α,6α)-N-[3-benzyl-3-azabicyclo[3.1.0]-hexyl-6-(aminomethyl)-yl]-2-hydroxy-2-cyclopentyl-2-phenyl acetamide hydrochloride salt] | 49 | 5.25 |  |  | 
(1α,5α,6α)-N-[3-(2-pyridylmethyl)-3-azabicyclo[3.1.0]hexyl-6-(aminomethyl)-yl]-2-hydroxy-2-cyclopentyl-2-phenylacetamide [Compound No. 47] |  |  |  | 6.15 | 7.42
O=C(NC[C@@H]1[C@H]2CN(Cc3ccncc3)C[C@@H]12)C(O)(c1ccccc1)C1CCCC1 (stereo partly drawn) [Compound No. 48, (1α,5α,6α)-N-[3-(4-pyridylmethyl)-3-azabicyclo[3.1.0]hexyl-6-(aminomethyl)-yl]-2-hydroxy-2-cyclopentyl-2-phenylacetamide] | > 1000 | 72.4 |  |  | 
O=C(NC[C@@H]1[C@H]2CN(Cc3ccncc3)C[C@@H]12)C(O)(c1ccccc1)c1ccccc1 [Compound No. 50, (1α,5α,6α)-N-[3-(4-pyridylmethyl)-3-azabicyclo[3.1.0]hexyl-6-(aminomethyl)-yl]-2-hydroxy-2,2-diphenyl acetamide] | > 1000 | 115 |  |  | 
